pIC50: −log10 of the molar value. The source made the active and inactive calls. The calls are words filed in the database; no cut-off is given here.
Legend:
PANC-1 [1] = assay: Cytotoxicity against human PANC-1 cells assessed as inhibition of cell growth incubated for 72 hrs by SRB assay; format: functional, cell-based; conditions: PANC-1, 72 h
[2] = tested on: Gemcitabine-resistant PANC-1; assay: Inhibition of p70S6K phosphorylation in human Gemcitabine-resistant PANC-1 cells at 160 nM incubated for 24 hrs by phospho-kinase array analysis; format: cell-based
[3] = tested on: Gemcitabine-resistant PANC-1; assay: Cytotoxicity against human Gemcitabine-resistant PANC-1 cells assessed as inhibition of cell growth incubated for 72 hrs by SRB assay; format: functional, cell-based; conditions: Gemcitabine-resistant PANC-1, 72 h
[4] = biological target: T1, Protein kinase C beta type (Homo sapiens, UniProt P05771); assay: Inhibition of recombinant full length N-terminal GST-tagged human PKCbeta1 expressed in baculovirus infected Sf9 insect cells using ERMRPRKRQGSVRRRV as substrate incubated for 60 mins in presence of ATP by ADP-glo reagent based luminometric analysis
Target sequence in this assay (P05771 whole entry): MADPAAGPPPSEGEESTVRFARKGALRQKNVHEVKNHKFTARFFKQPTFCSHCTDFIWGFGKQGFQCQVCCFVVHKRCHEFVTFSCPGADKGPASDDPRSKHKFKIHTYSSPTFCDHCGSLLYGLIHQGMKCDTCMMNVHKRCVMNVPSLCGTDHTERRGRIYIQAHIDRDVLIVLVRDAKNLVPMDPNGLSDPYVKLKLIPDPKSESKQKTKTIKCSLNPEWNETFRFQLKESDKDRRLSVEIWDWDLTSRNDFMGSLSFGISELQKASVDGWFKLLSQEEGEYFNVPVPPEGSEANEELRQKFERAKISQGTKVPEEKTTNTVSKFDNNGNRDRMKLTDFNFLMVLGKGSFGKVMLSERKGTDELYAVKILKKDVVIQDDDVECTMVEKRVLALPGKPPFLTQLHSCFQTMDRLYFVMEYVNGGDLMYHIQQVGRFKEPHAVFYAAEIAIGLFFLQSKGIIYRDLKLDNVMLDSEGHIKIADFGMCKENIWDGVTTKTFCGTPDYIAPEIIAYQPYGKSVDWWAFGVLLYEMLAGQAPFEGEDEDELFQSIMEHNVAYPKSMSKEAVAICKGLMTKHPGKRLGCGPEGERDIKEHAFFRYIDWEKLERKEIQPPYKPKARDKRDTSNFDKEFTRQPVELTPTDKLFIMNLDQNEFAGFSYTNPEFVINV

[5] = tested on: Gemcitabine-resistant PANC-1; assay: Downregulation of PKCbeta1expression in human Gemcitabine-resistant PANC-1 cells at 100 nM incubated for 24 hrs by Western blot analysis; format: functional, cell-based
PANC-1 [6] = assay: Antiproliferative activity against human PANC-1 cells transfected with PKCbeta1 siRNA assessed as reduction in cell viability at 0.016 to 10 uM incubated for 72 hrs by MTT assay; format: functional, cell-based; conditions: dose 0.016-10 µM
[7] = tested on: Gemcitabine-resistant PANC-1; assay: Downregulation of PKCbeta1 expression in human Gemcitabine-resistant PANC-1 cells at 40 to 160 nM incubated for 24 hrs by Western blotting; format: functional, cell-based; conditions: dose 40-160 nM
[8] = tested on: Gemcitabine-resistant PANC-1; assay: Downregulation of PKCalpha expression in human Gemcitabine-resistant PANC-1 cells at 40 to 160 nM incubated for 24 hrs by Western blotting; format: functional, cell-based; conditions: dose 40-160 nM
[9] = tested on: Gemcitabine-resistant PANC-1; assay: Downregulation of PKCdelta expression in human Gemcitabine-resistant PANC-1 cells at 40 to 160 nM incubated for 24 hrs by Western blotting; format: functional, cell-based; conditions: dose 40-160 nM
[10] = tested on: Gemcitabine-resistant PANC-1; assay: Downregulation of PKCepsilon expression in human Gemcitabine-resistant PANC-1 cells at 40 to 160 nM incubated for 24 hrs by Western blotting; format: functional, cell-based; conditions: dose 40-160 nM
[11] = biological target: Glycogen synthase kinase-3 beta (Homo sapiens) (UniProt P49841); assay: Inhibition of GSK3beta phosphorylation in human Gemcitabine-resistant PANC-1 cells at 160 nM incubated for 24 hrs by phospho-kinase array analysis; format: cell-based
[12] = biological target: Serine/threonine-protein kinase AKT (Homo sapiens) (UniProt P31751+Q9Y243+P31749); assay: Inhibition of Akt phosphorylation in human Gemcitabine-resistant PANC-1 cells at 160 nM incubated for 24 hrs by phospho-kinase array analysis; format: cell-based
[13] = biological target: Proline-rich AKT1 substrate 1 (Homo sapiens) (UniProt Q96B36); assay: Inhibition of PRAS40 phosphorylation in human Gemcitabine-resistant PANC-1 cells at 160 nM incubated for 24 hrs by phospho-kinase array analysis; format: cell-based
[14] = tested on: Gemcitabine-resistant PANC-1; assay: Downregulation of p-Akt expression in human Gemcitabine-resistant PANC-1 cells at 40 to 160 nM incubated for 24 hrs by Western blotting; format: functional, cell-based; conditions: dose 40-160 nM
[15] = tested on: Gemcitabine-resistant PANC-1; assay: Downregulation of p-p70S6K expression in human Gemcitabine-resistant PANC-1 cells at 40 to 160 nM incubated for 24 hrs by Western blotting; format: functional, cell-based; conditions: dose 40-160 nM
[16] = tested on: Gemcitabine-resistant PANC-1; assay: Downregulation of p-STAT5 expression in human Gemcitabine-resistant PANC-1 cells at 40 to 160 nM incubated for 24 hrs by Western blotting; format: functional, cell-based; conditions: dose 40-160 nM
[17] = tested on: Gemcitabine-resistant PANC-1; assay: Effect on Akt expression in human Gemcitabine-resistant PANC-1 cells at 40 to 160 nM by Western blot analysis; format: functional, cell-based; conditions: dose 40-160 nM
[18] = tested on: Gemcitabine-resistant PANC-1; assay: Effect on p70S6K expression in human Gemcitabine-resistant PANC-1 cells at 40 to 160 nM by Western blot analysis; format: functional, cell-based; conditions: dose 40-160 nM
[19] = tested on: Gemcitabine-resistant PANC-1; assay: Effect on PRAS40 expression in human Gemcitabine-resistant PANC-1 cells at 40 to 160 nM by Western blot analysis; format: functional, cell-based; conditions: dose 40-160 nM
[20] = tested on: Gemcitabine-resistant PANC-1; assay: Effect on STAT5 expression in human Gemcitabine-resistant PANC-1 cells at 40 to 160 nM by Western blot analysis; format: functional, cell-based; conditions: dose 40-160 nM
[21] = tested on: Gemcitabine-resistant PANC-1; assay: Cell cycle distribution in human Gemcitabine-resistant PANC-1 cells assessed as sub-G1 phase cells at 80 nM incubated for 24 hrs by RNase/PI staining based flow cytometric analysis (reference value: 0.30 %); format: functional
[22] = tested on: Gemcitabine-resistant PANC-1; assay: Cell cycle distribution in human Gemcitabine-resistant PANC-1 cells assessed as S phase cells at 40 nM incubated for 24 hrs by RNase/PI staining based flow cytometric analysis (reference value: 17.32 %); format: functional
[23] = tested on: Gemcitabine-resistant PANC-1; assay: Cell cycle distribution in human Gemcitabine-resistant PANC-1 cells assessed as G2/M phase cells at 80 nM incubated for 24 hrs by RNase/PI staining based flow cytometric analysis (reference value: 37.53 %); format: functional
[24] = tested on: Gemcitabine-resistant PANC-1; assay: Cell cycle distribution in human Gemcitabine-resistant PANC-1 cells assessed as G2/M phase cells at 160 nM incubated for 24 hrs by RNase/PI staining based flow cytometric analysis (reference value: 37.53 %); format: functional
[25] = tested on: Gemcitabine-resistant PANC-1; assay: Induction of cell cycle arrest in human Gemcitabine-resistant PANC-1 cells assessed as downregulation of CDK2 protein expression level at 40 to 160 nM incubated for 24 hrs by Western blot analysis; format: functional, cell-based; conditions: dose 40-160 nM
[26] = tested on: Gemcitabine-resistant PANC-1; assay: Induction of cell cycle arrest in human Gemcitabine-resistant PANC-1 cells assessed as upregulation of cyclin B1 protein expression level at 40 to 160 nM incubated for 24 hrs by Western blot analysis; format: functional, cell-based; conditions: dose 40-160 nM
[27] = tested on: Gemcitabine-resistant PANC-1; assay: Induction of apoptosis in human Gemcitabine-resistant PANC-1 cells assessed as upregulation of cleaved PARP level at 160 nM incubated for 48 hrs by Western blot analysis; format: functional, cell-based
[28] = tested on: Gemcitabine-resistant PANC-1; assay: Induction of apoptosis in human Gemcitabine-resistant PANC-1 cells assessed as upregulation of cleaved caspase-8 level at 160 nM incubated for 48 hrs by Western blot analysis; format: functional, cell-based
[29] = tested on: Gemcitabine-resistant PANC-1; assay: Induction of apoptosis in human Gemcitabine-resistant PANC-1 cells assessed as upregulation of cleaved caspase-3 level at 160 nM incubated for 48 hrs by Western blot analysis; format: functional, cell-based
[30] = Toxicity in male BALB/c nude mouse assessed as animal death at 40 mg/kg, ip; format: organism-based; conditions: in vivo
[31] = tested on: Gemcitabine-resistant PANC-1; assay: In vivo inhibition of PKCbeta1 in male BALB/c nude mouse xenografted with human Gemcitabine-resistant PANC-1 cells assessed as reduction in PKCbeta1 expression in tumor at 10 mg/kg, ip administered three times in a week for 20 days by Western blot analysis; format: functional, organism-based; conditions: time 20.0 day
[32] = biological target: T1, Protein kinase C beta type; assay: Induction of thermal stabilization of PKCbeta1 in human Gemcitabine-resistant PANC-1 cells at 10 uM incubated for 1 hrs at 40 to 65 degreeC by CETSA; format: cell-based
Target sequence in this assay (P05771 2-671 limits assumed): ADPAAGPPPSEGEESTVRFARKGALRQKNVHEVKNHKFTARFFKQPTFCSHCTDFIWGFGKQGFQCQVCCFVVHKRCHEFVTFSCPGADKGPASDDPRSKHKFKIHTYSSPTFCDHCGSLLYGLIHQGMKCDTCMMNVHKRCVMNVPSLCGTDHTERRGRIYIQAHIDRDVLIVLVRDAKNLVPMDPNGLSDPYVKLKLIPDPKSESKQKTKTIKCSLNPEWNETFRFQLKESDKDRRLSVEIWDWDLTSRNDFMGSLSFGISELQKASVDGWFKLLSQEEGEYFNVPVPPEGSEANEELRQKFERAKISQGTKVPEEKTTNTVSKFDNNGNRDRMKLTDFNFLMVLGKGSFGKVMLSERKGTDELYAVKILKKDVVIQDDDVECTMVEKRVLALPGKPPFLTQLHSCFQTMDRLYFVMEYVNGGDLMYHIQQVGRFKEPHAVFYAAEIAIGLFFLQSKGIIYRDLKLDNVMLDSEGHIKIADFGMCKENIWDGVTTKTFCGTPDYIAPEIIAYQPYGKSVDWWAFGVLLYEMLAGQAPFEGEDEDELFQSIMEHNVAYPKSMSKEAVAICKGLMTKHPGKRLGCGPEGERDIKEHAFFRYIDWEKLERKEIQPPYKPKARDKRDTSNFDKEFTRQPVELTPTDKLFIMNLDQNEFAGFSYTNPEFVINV

Chain of Glycogen synthase kinase-3 beta (Homo sapiens) (P49841 whole entry, looked up): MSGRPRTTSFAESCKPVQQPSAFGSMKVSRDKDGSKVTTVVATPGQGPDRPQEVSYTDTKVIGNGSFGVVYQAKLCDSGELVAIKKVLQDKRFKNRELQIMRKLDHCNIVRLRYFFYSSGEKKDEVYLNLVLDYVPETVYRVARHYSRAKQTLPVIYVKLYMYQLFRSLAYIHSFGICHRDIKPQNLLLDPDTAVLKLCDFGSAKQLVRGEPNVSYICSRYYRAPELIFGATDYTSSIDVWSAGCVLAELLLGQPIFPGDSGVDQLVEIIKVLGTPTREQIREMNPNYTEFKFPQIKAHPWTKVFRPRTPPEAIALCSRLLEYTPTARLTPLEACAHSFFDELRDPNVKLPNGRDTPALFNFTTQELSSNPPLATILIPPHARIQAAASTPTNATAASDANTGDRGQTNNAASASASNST
Chain of Serine/threonine-protein kinase AKT (Homo sapiens) (P31749 whole entry, looked up): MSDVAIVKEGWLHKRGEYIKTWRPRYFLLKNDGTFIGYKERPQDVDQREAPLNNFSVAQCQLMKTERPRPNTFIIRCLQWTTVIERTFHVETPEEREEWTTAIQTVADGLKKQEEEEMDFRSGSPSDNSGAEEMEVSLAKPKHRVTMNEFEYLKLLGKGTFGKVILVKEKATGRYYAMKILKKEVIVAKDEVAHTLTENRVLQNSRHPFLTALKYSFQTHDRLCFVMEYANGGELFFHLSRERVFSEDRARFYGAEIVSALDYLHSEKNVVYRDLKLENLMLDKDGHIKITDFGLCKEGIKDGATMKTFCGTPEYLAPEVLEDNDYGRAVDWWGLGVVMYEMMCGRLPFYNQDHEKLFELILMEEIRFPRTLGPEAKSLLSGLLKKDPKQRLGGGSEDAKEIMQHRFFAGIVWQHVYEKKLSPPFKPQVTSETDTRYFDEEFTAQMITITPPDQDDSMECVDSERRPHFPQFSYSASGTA
Chain of Serine/threonine-protein kinase AKT (Homo sapiens) (P31751 whole entry, looked up): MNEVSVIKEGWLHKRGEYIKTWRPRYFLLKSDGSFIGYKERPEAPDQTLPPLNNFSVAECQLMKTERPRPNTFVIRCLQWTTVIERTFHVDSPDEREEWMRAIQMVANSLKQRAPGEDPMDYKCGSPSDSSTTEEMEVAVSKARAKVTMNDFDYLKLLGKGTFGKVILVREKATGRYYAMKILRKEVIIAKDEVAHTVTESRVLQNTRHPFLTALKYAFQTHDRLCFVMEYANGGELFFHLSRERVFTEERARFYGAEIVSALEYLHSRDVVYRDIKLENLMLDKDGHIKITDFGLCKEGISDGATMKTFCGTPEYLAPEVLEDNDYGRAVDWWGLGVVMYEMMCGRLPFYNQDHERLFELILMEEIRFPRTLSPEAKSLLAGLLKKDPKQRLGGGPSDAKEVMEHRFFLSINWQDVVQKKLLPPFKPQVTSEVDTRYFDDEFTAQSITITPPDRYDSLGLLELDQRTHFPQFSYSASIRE
Chain of Serine/threonine-protein kinase AKT (Homo sapiens) (Q9Y243 whole entry, looked up): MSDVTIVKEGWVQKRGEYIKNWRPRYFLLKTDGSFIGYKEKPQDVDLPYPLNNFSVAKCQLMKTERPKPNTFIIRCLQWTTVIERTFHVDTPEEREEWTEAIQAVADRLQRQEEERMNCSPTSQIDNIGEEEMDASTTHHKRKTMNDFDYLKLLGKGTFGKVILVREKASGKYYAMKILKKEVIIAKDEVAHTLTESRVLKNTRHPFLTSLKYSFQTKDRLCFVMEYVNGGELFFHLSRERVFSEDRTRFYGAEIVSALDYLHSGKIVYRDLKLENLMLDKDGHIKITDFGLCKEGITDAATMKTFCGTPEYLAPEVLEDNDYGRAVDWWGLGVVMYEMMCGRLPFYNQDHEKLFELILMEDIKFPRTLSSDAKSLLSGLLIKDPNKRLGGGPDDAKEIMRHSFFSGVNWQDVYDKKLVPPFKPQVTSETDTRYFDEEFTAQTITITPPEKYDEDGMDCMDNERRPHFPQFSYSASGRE

Q: With `CC(=O)Oc1ccc2[nH]c3c(c2c1)CCN1C(=O)c2ccccc2N(C)[C@H]31` as the compound, how does the pIC50 (PANC-1 [1]) read?
A: ≥ 7.10

Q: And the inhibition [2]?
A: Active

Q: What about the pIC50 [3] of the same compound?
A: 7.15

Q: And the pIC50 [4]?
A: 6.93

Q: What about the Activity [5] of the same compound?
A: Active

Q: What about the Activity (PANC-1 [6]) of the same compound?
A: inactive

Q: What about the Activity [7] of the same compound?
A: Active

Q: What about the Activity [8] of the same compound?
A: inactive

Q: And the Activity [9]?
A: inactive

Q: And the Activity [10]?
A: inactive

Q: What about the inhibition [11] of the same compound?
A: Active

Q: And the inhibition [12]?
A: Active

Q: And the inhibition [13]?
A: Active

Q: And the Activity [14]?
A: Active

Q: And the Activity [15]?
A: Active

Q: What about the Activity [16] of the same compound?
A: Active

Q: And the Activity [17]?
A: inactive

Q: And the Activity [18]?
A: inactive

Q: And the Activity [19]?
A: inactive

Q: And the Activity [20]?
A: inactive

Q: And the Activity [21]?
A: 1.31%

Q: And the Activity [22]?
A: 17.71%

Q: And the Activity [23]?
A: 48.98%

Q: What about the Activity [24] of the same compound?
A: 58.51%

Q: What about the Activity [25] of the same compound?
A: Active

Q: And the Activity [26]?
A: Active

Q: What about the Activity [27] of the same compound?
A: Active

Q: And the Activity [28]?
A: Active

Q: And the Activity [29]?
A: Active

Q: And the Activity [30]?
A: Non-Toxic

Q: And the inhibition [31]?
A: Active

Q: And the Activity [32]?
A: Active

Reference: ChEMBL document CHEMBL5584333, “Evo312: An Evodiamine Analog and Novel PKCβI Inhibitor with Potent Antitumor Activity in Gemcitabine-Resistant Pancreatic Cancer” (J Med Chem, 2024)
